From PubChem BioAssay AID330 (DTP/NCI, 2004)
Where “and” joins values, the source holds several entries; their conditions need not be identical. Identical values can stand only once. Toxic doses and inconclusive results are not listed.

Tested on: P388 leukemia ip, CD2F1 mice, survival T/C
Assay: NCI In Vivo Anticancer Drug Screen. Data for tumor model P388 Leukemia (intraperitoneal) in CD2F1 (CDF1) mice
Conditions: endpoint: median survival time, higher = longer survival
Method in brief: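 Mice carrying the transplanted tumor received test compound or vehicle. Survival was recorded in each group, and the value is the treated-group measurement divided by that of the vehicle-treated control group.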

[1] = dose: 50.0 mg/kg/injection, schedule: Q01DX009 (ip), vehicle: Klucel (hydroxypropylcellulose) (HPC)
[2] = dose: 100.0 mg/kg/injection, schedule: Q01DX009 (ip), vehicle: Klucel (hydroxypropylcellulose) (HPC)
[3] = dose: 200.0 mg/kg/injection, schedule: Q01DX009 (ip), vehicle: Klucel (hydroxypropylcellulose) (HPC)
[4] = dose: 100.0 mg/kg/injection, schedule: Q01DX009 (ip), vehicle: saline with Tween-80
[5] = dose: 200.0 mg/kg/injection, schedule: Q01DX009 (ip), vehicle: saline with Tween-80
[6] = dose: 50.0 mg/kg/injection, schedule: Q01DX005 (ip), vehicle: saline
[7] = dose: 100.0 mg/kg/injection, schedule: Q01DX005 (ip), vehicle: saline
[8] = dose: 200.0 mg/kg/injection, schedule: Q01DX005 (ip), vehicle: saline
[9] = dose: 50.0 mg/kg/injection, schedule: Q01DX009 (ip), vehicle: saline with Tween-80
[10] = dose: 50.0 mg/kg/injection, schedule: Q01DX005 (ip), vehicle: Klucel (hydroxypropylcellulose) (HPC)
[11] = dose: 100.0 mg/kg/injection, schedule: Q01DX005 (ip), vehicle: Klucel (hydroxypropylcellulose) (HPC)
[12] = dose: 200.0 mg/kg/injection, schedule: Q01DX005 (ip), vehicle: Klucel (hydroxypropylcellulose) (HPC)
[13] = dose: 50.0 mg/kg/injection, schedule: Q01DX005 (ip), vehicle: saline with Tween-80
[14] = dose: 100.0 mg/kg/injection, schedule: Q01DX005 (ip), vehicle: saline with Tween-80
[15] = dose: 60.0 mg/kg/injection, schedule: Q01DX005 (ip), vehicle: saline
[16] = dose: 120.0 mg/kg/injection, schedule: Q01DX005 (ip), vehicle: saline
[17] = dose: 240.0 mg/kg/injection, schedule: Q01DX005 (ip), vehicle: saline
[18] = dose: 50.0 mg/kg/injection, schedule: Q01DX001 (ip), vehicle: other

Cc1ccc(OP(=O)(Oc2ccc(C)cc2)Oc2ccc(C)cc2)cc1.Cc1ccc(OP(=O)(Oc2ccc(C)cc2)Oc2ccc(C)cc2)cc1.Cc1ccc(OP(=O)(Oc2ccc(C)cc2)Oc2ccc(C)cc2)cc1.Cc1ccc(OP(=O)(Oc2ccc(C)cc2)Oc2ccc(C)cc2)cc1.[Mn+2].[O-][Cl+3]([O-])([O-])O
T/C (dose: 10.0 mg/kg/injection, schedule: Q01DX001 (ip), vehicle: Klucel (hydroxypropylcellulose) (HPC)): 101 % of control | T/C (dose: 20.0 mg/kg/injection, schedule: Q01DX001 (ip), vehicle: Klucel (hydroxypropylcellulose) (HPC)): 94 % of control | T/C (dose: 40.0 mg/kg/injection, schedule: Q01DX001 (ip), vehicle: Klucel (hydroxypropylcellulose) (HPC)): 99 % of control

NC(=O)c1[nH]c(N=Nc2ccc(Cl)cc2)nc1N
T/C [1]: 92 % of control | T/C [2]: 100 % of control | T/C [3]: 89 % of control

CN(CCl)S(=O)(=O)c1ccccc1
T/C [4]: 90 % of control | T/C [5]: 100 % of control | T/C (dose: 400.0 mg/kg/injection, schedule: Q01DX009 (ip), vehicle: saline with Tween-80): 105 % of control

C/C=C1/CN2CCC1CC2C(O)c1ccnc2ccc(OCCO)cc12 (centres undefined)
T/C [6]: 97 % of control | T/C [7]: 93 % of control | T/C [8]: 94 % of control

COC(CN(C)C)C(Cl)(Cl)Cl (centres undefined)
T/C [1]: 103 % of control | T/C [2]: 108 % of control | T/C [3]: 101 % of control

CC(=O)CC(=O)Cc1oc2c(C(C)=O)c(O)c(C)c(O)c2c1C
T/C (dose: 25.0 mg/kg/injection, schedule: Q01DX009 (ip), vehicle: saline with Tween-80): 90 % of control | T/C [9]: 90 % of control | T/C [4]: 88 % of control | T/C [5]: 90 % of control

CCCCn1cnc2c(=S)nc(N)[nH]c21
T/C (dose: 25.0 mg/kg/injection, schedule: Q04DX003 (ip), vehicle: saline with Tween-80): 109 % of control | T/C (dose: 50.0 mg/kg/injection, schedule: Q04DX003 (ip), vehicle: saline with Tween-80): 118 % of control | T/C (dose: 400.0 mg/kg/injection, schedule: Q04DX003 (ip), vehicle: saline with Tween-80): 90 % of control

CSc1cccc(NC(=O)Nc2nc3c(C)cccc3s2)c1
T/C [10]: 96 % of control | T/C [11]: 95 % of control | T/C [12]: 90 % of control

CCOC(=O)C1=C(/C=C/c2cccc(Cl)c2)O/C(=C/c2cccc(Cl)c2)C1=O
T/C [13]: 87 % of control | T/C [14]: 96 % of control | T/C (dose: 200.0 mg/kg/injection, schedule: Q01DX005 (ip), vehicle: saline with Tween-80): 106 % of control

COc1cc2c(c(O)c1O)C(=O)c1c(O)cc(C)cc1C2=O
T/C (dose: 5.0 mg/kg/injection, schedule: Q01DX009 (ip), vehicle: saline with Tween-80): 108 % of control | T/C (dose: 10.0 mg/kg/injection, schedule: Q01DX009 (ip), vehicle: saline with Tween-80): 117 % of control | T/C (dose: 20.0 mg/kg/injection, schedule: Q01DX009 (ip), vehicle: saline with Tween-80): 108 % of control

O=C(NCCO)Nc1ccc2c(c1)OCCOCCOCCOCCO2
T/C (dose: 30.0 mg/kg/injection, schedule: Q01DX005 (ip), vehicle: saline): 98 % of control | T/C [15]: 101 % of control | T/C [16]: 99 % of control | T/C [17]: 99 % of control

COc1ccc2nccc3c2c1NC(Cl)=C3
T/C (dose: 60.0 mg/kg/injection, schedule: Q01DX005 (ip), vehicle: Klucel (hydroxypropylcellulose) (HPC)): 97 % of control | T/C (dose: 120.0 mg/kg/injection, schedule: Q01DX005 (ip), vehicle: Klucel (hydroxypropylcellulose) (HPC)): 103 % of control | T/C (dose: 240.0 mg/kg/injection, schedule: Q01DX005 (ip), vehicle: Klucel (hydroxypropylcellulose) (HPC)): 97 % of control

O=S=NSc1c(F)c(F)c(F)c(F)c1F
T/C [13]: 104 % of control | T/C [14]: 111 % of control

CSC(=S)N/N=C(\C)c1ccc[nH]1
T/C [10]: 99 % of control | T/C [11]: 97 % of control

COc1cc(OC)c(NC(=O)Nc2cc(Cl)ccc2Cl)cc1Cl
T/C [9]: 94 % of control | T/C [4]: 91 % of control

O=C(c1ccccc1)C1COc2ccccc2C1O (centres undefined)
T/C (dose: 60.0 mg/kg/injection, schedule: Q01DX005 (ip), vehicle: saline with Tween-80): 109 % of control | T/C (dose: 120.0 mg/kg/injection, schedule: Q01DX005 (ip), vehicle: saline with Tween-80): 94 % of control | T/C (dose: 240.0 mg/kg/injection, schedule: Q01DX005 (ip), vehicle: saline with Tween-80): 94 % of control

NC(=O)c1cc(C(N)=O)n(C2OC(CO)C(O)C2O)n1 (centres undefined)
T/C (dose: 30.0 mg/kg/injection, schedule: Q04DX002 (ip), vehicle: saline): 98 % of control and 99 % of control | T/C (dose: 60.0 mg/kg/injection, schedule: Q04DX002 (ip), vehicle: saline): 104 % of control and 93 % of control | T/C (dose: 120.0 mg/kg/injection, schedule: Q04DX002 (ip), vehicle: saline): 98 % of control and 93 % of control

COc1ccc([B-]23OCC[N+]2(CNC(=O)c2ccccc2O)CCO3)cc1 (centres undefined)
T/C [10]: 103 % of control | T/C [11]: 112 % of control | T/C [12]: 105 % of control

O=S(=O)(O)C(O)C(F)(F)C(F)(F)C(F)(F)F (centres undefined)
T/C [15]: 98 % of control | T/C [16]: 94 % of control | T/C [17]: 99 % of control

C/C(=N\N=C(/[Se])N1CCN(c2ccc(F)cc2)CC1)c1ccccn1
T/C (dose: 100.0 mg/kg/injection, schedule: Q04DX003 (ip), vehicle: Klucel (hydroxypropylcellulose) (HPC)): 101 % of control | T/C (dose: 200.0 mg/kg/injection, schedule: Q04DX003 (ip), vehicle: Klucel (hydroxypropylcellulose) (HPC)): 108 % of control | T/C (dose: 400.0 mg/kg/injection, schedule: Q04DX003 (ip), vehicle: Klucel (hydroxypropylcellulose) (HPC)): 100 % of control

CN(C)CC(Cl)CCl (centres undefined)
T/C (dose: 50.0 mg/kg/injection, schedule: Q04DX003 (ip), vehicle: saline): 109 % of control | T/C (dose: 100.0 mg/kg/injection, schedule: Q04DX003 (ip), vehicle: saline): 109 % of control | T/C (dose: 200.0 mg/kg/injection, schedule: Q01DX009 (ip), vehicle: saline): 195 % of control

CC(O)(CO)CC(C)(O)CO (centres undefined)
T/C [6]: 97 % of control | T/C [7]: 105 % of control | T/C [8]: 103 % of control

O=C1NC(CO)C(=O)N2CCCC12 (centres undefined)
T/C (dose: 12.5 mg/kg/injection, schedule: Q01DX009 (ip), vehicle: saline): 100 % of control | T/C (dose: 25.0 mg/kg/injection, schedule: Q01DX009 (ip), vehicle: saline): 99 % of control | T/C (dose: 50.0 mg/kg/injection, schedule: Q01DX009 (ip), vehicle: saline): 99 % of control

NC(Cc1cc(I)c(Oc2cc(I)c(O)c(I)c2)c(I)c1)C(=O)O (centres undefined)
T/C (dose: 0.25 mg/kg/injection, schedule: Q01DX009 (ip), vehicle: saline): 99 % of control | T/C (dose: 0.5 mg/kg/injection, schedule: Q01DX009 (ip), vehicle: saline): 103 % of control | T/C (dose: 1.0 mg/kg/injection, schedule: Q01DX009 (ip), vehicle: saline): 99 % of control | T/C (dose: 2.0 mg/kg/injection, schedule: Q01DX009 (ip), vehicle: saline): 94 % of control | T/C (dose: 4.0 mg/kg/injection, schedule: Q01DX009 (ip), vehicle: saline): 88 % of control

COc1ccc(C(C)N(C)C)cc1 (centres undefined)
T/C [18]: 101 % of control | T/C (dose: 100.0 mg/kg/injection, schedule: Q01DX001 (ip), vehicle: other): 99 % of control and 103 % of control | T/C (dose: 200.0 mg/kg/injection, schedule: Q01DX001 (ip), vehicle: other): 98 % of control

CCCCCCCC/C=C\CCCCCCCC(=O)OCCCCCCCCCCCCCC
T/C (dose: 12.5 mg/kg/injection, schedule: Q01DX001 (ip), vehicle: other): 100 % of control | T/C (dose: 25.0 mg/kg/injection, schedule: Q01DX001 (ip), vehicle: other): 90 % of control | T/C [18]: 100 % of control
